Source: patent US4447422A, “Penicillins and compositions containing them” (Beecham Group p.1.c., priority 1981, dated 1984)
In brackets after ≈: the same amount, converted by molar mass. Structures can show the parent of a compound that is named as a salt. Where two headings read alike, the source gives them in different places.

Key:
Assay in all cases: antibacterial activity (MIC)
Type in all cases: cell-based
E coli ESS = details: Table 1
E coli JT4 = details: Table 1
E coli JT425 = details: Table 1
E coli NCTC 10418 = system: E coli NCTC 10418
Ps aeruginosa 10662 = details: Table 1
Ps aeruginosa Dalgleish = details: Table 1; Ps aeruginosa Dalgleish 10^-2
Serratia marcescens US32 = details: Table 1
Klebsiella aerogenes A = details: Table 1
Enterobacter cloacae N1 = details: Table 1
P mirabilis C977 = details: Table 1
P mirabilis 889 = details: Table 1
P morganii = details: Table 1
P rettgeri = details: Table 1
B subtilis = details: Table 1
Staph aureus Oxford = system: Staph aureus Oxford
Staph aureus Russell = details: Staphylococcus aureus, Table 1
N catarrhalis 1502 = details: Table 1
Step faecalis I = details: Table 1
β-Haemolytic Strep CN10 = details: Table 1
[1] = Escherichia coli, NCTC10418, Table 2, gram negative organism E. coli NCTC 10418
[2] = Staphylococcus aureus, Table 1, Staph aureus Oxford, read-out: MIC
[3] = Table 2, gram positive organism Staph. aureus Oxford
[4] = Staphylococcus aureus, Table 2, gram positive organism Staph. aureus Oxford, read-out: MIC

| SMILES | MIC (E coli ESS) [µg/mL] | MIC (E coli JT4) [µg/mL] | MIC (E coli JT425) [µg/mL] | MIC (E coli NCTC 10418; [1]) [µg/mL] | MIC (E coli NCTC 10418; Table 1, E coli NCTC 10418) [µg/mL] | MIC (Ps aeruginosa 10662; Ps aeruginosa 10662) [µg/mL] | MIC (Ps aeruginosa Dalgleish) [µg/mL] | MIC (Serratia marcescens US32) [µg/mL] | MIC (Klebsiella aerogenes A) [µg/mL] | MIC (Enterobacter cloacae N1) [µg/mL] | MIC (P mirabilis C977) [µg/mL] | MIC (P mirabilis 889) [µg/mL] | MIC (P morganii) [µg/mL] | MIC (P rettgeri) [µg/mL] | MIC (B subtilis) [µg/mL] | MIC (Staph aureus Oxford; [2]) [µg/mL] | MIC (Staph aureus Oxford; [3]) [µg/mL] | MIC (Staph aureus Russell) [µg/mL] | MIC (N catarrhalis 1502) [µg/mL] | MIC (Step faecalis I) [µg/mL] | further results |
| --- | --- | --- | --- | --- | --- | --- | --- | --- | --- | --- | --- | --- | --- | --- | --- | --- | --- | --- | --- | --- | --- |
| CCSCCNc1ncc(C(=O)N[C@@H](C(=O)N[C@@H]2C(=O)N3[C@@H]2SC(C)(C)[C@@H]3C(=O)O)c2ccccc2)c(O)n1 [Example 2, 6β-[D-2-(2-[2-Ethylthioethyl-1-amino]-4-hydroxypyrimidine-5-carbonylamino)-2-phenyl]acetamido penicillanic acid] | < 0.01 | > 500 | 50 (≈ 87 µM) | 2.5 (≈ 4.35 µM) | 2.5 (≈ 4.35 µM) | 5 (≈ 8.7 µM) | 125 (≈ 218 µM) | 12.5 (≈ 21.8 µM) | 12.5 (≈ 21.8 µM) | 12.5 (≈ 21.8 µM) | 2.5 (≈ 4.35 µM) | > 500 | 25 (≈ 43.5 µM) | 12.5 (≈ 21.8 µM) | 1.25 (≈ 2.18 µM) | 1.25 (≈ 2.18 µM) | 1.25 (≈ 2.18 µM) | 125 (≈ 218 µM) | < 0.01 | 5 (≈ 8.7 µM) | MIC (Ps aeruginosa 10662; Ps aeruginosa 10662 10^-2): 2.5 µg/mL (≈ 4.35 µM); MIC (β-Haemolytic Strep CN10): < 0.01 µg/mL |
| CCCCNc1ncc(C(=O)N[C@@H](C(=O)N[C@@H]2C(=O)N3[C@@H]2SC(C)(C)[C@@H]3C(=O)O)c2ccccc2)c(O)n1 [Example 16, 6β-[D-2-(2-n-Butylamino-4-hydroxypyrimidine-5-carbonylamino)-2-phenyl] acetamido penicillanic acid, disodium salt] | 0.02 | > 500 | 50 | 1.2 | 1.5 | 5 | 125 | 12.5 | 12.5 | 5 | 2.5 | > 500 | 5 | 5 | 1.2 | 1.2 | 1.2 | 125 | 0.02 | 5 | MIC (β-Haemolytic Strep CN10): 0.02 µg/mL |
| CC1(C)S[C@@H]2[C@H](NC(=O)[C@H](NC(=O)c3cnc(NCc4ccccc4)nc3O)c3ccccc3)C(=O)N2[C@H]1C(=O)O [Example 1, 6β-[D-2-(2-benzylamino-4-hydroxypyrimidine-5-carbonylamino)-2-phenyl]acetamido penicillanic acid] | < 0.02 | > 100 | 25 (≈ 43.4 µM) | 2.5 (≈ 4.34 µM) | 2.5 (≈ 4.34 µM) | 5 (≈ 8.67 µM) | 50 (≈ 86.7 µM) | 10 (≈ 17.3 µM) | 50 (≈ 86.7 µM) | 10 (≈ 17.3 µM) | 2.5 (≈ 4.34 µM) | > 100 | 50 (≈ 86.7 µM) | 10 (≈ 17.3 µM) | 2.5 (≈ 4.34 µM) | 0.5 (≈ 0.867 µM) | 0.5 (≈ 0.867 µM) | 50 (≈ 86.7 µM) | < 0.02 | 5 (≈ 8.67 µM) | MIC (Ps aeruginosa 10662; Ps aeruginosa 10662 10^-2): 2.5 µg/mL (≈ 4.34 µM); MIC (β-Haemolytic Strep CN10): < 0.02 µg/mL |
| CCCCCCCCNc1ncc(C(=O)N[C@@H](C(=O)N[C@@H]2C(=O)N3[C@@H]2SC(C)(C)[C@@H]3C(=O)O)c2ccccc2)c(O)n1 [Example 20, 6β-[D-2-(2-n-Octylamino-4-hydroxypyrimidine-5-carbonylamino)-2-phenyl] acetamido penicillanic acid, disodium salt] |  |  |  | 10 |  |  |  |  |  |  |  |  |  |  |  |  |  |  |  |  | MIC (Staph aureus Oxford; [4]): 2.5 µg/mL |
| CC1(C)S[C@@H]2[C@H](NC(=O)[C@H](NC(=O)c3cnc(NCc4ccccc4)nc3O)c3ccc(O)cc3)C(=O)N2[C@H]1C(=O)O [Example 4, 6β-[D-2-(2-Benzylamino-4-hydroxypyrimidine-5-carbonylamino)-2-(4-hydroxyphenyl)] acetamido penicillanic acid disodium salt] |  |  |  | 5 |  |  |  |  |  |  |  |  |  |  |  |  |  |  |  |  | MIC (Staph aureus Oxford; [4]): 1.25 µg/mL |
| CNc1ncc(C(=O)N[C@@H](C(=O)N[C@@H]2C(=O)N3[C@@H]2SC(C)(C)[C@@H]3C(=O)O)c2ccccc2)c(O)n1 [Example 11, 6β-D-2-(2-Methylamino-4-hydroxypyrimidine-5-carbonylamino)-2-phenyl] acetamido penicillanic acid, disodium salt] |  |  |  | 25 |  |  |  |  |  |  |  |  |  |  |  |  |  |  |  |  | MIC (Staph aureus Oxford; [4]): 2.5 µg/mL |
